Experimental data taken from US20150307491A1, “SUBSTITUTED PYRIDOPYRAZINES AS SYK INHIBITORS” (HUTCHISON MEDIPHARMA LIMITED, priority 2012, published 2015).

Columns and labels:
Flt3 kinase = biological target: T1, Flt3 kinase (Homo sapiens, UniProt P36888); experiment: Z-lyte kinase assay of Flt-3; format: biochemical; conditions: Z-LYTE Tyr 2 peptide; final concentrations 3 to 0.0014 μM
T1 construct: purchased Invitrogen PV3182
T1 sequence (P36888 564-993 limits assumed): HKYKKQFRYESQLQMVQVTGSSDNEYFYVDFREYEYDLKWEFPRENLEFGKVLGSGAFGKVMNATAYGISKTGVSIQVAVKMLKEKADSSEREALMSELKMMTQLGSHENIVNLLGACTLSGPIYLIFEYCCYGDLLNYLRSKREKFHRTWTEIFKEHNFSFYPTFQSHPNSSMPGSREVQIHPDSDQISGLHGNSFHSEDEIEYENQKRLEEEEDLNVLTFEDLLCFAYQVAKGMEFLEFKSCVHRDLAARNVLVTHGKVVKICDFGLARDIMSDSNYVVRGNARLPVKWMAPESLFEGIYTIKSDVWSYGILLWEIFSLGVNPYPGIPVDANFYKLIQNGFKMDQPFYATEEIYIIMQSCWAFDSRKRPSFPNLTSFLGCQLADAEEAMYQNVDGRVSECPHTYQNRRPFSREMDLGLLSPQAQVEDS
Experimental: Z-lyte kinase assay of Flt-3:
Dilute 5× Kinase Buffer to 1,33× with ddH2O
Serially dilute the test compounds to 4 folds of the concentrations desired, keeping the DMSO concentration at 8%. The final concentrations were 3, 1, 0.33, 0.11, 0.037, 0.012, 0.004, 0.0014 μM, and the final concentration of DMSO was 2%,
Prepare Kinase/Peptide Mixture by diluting the kinase to 0.12 μg/mL and the Z-LYTE™ Tyr 2 peptide to 4 μM in 1.33× Kinase Buffer. Mix gently by pipetting. 4) Phcspho-peptide Solution (PP solution)
Add 0.4 μL of Z-LYTE™ Tyr 2 Phospho-peptide to 99.6 μL of 1.33× Kinase Buffer.
Prepare ATP Solution by diluting the 10 mM of ATP in 1.33× Kinase Buffer to 1.88 mM.
Dilute Development Reagent A with Development Buffer as 1:64.
1) Kinase reaction (10 μL of Volume) • a. Add 2.5 μL of 4× test Cpds to each well except C1, C2, C3 wells
Add 2.5 μL of 8% DMSO to C1, C2, C3 wells • b. Put the 384-plate on ice • c. Add 5 μL of P/K mixture to each test Cpd wells and C1, C2 wells • d. Add 5 μL of PP Solution to C3 well • e. Add 2.5 μL of 1,33× kinase buffer to C1 and C3 wells • f. Add 2.5 μL of 4×ATP Solution to each test Cpd wells and C2 well, respectively.
Shake the plate for 30 Sec and centrifuge (1500 rpm, 1 min) • g. Seal the plate to protect from the light and incubate the plate for 1 hour at RT (25-30° C.) 2) Development reaction • a. Add 5 μL of the Development solution to all wells • b. Shake the plate for 30 Sec and centrifuge (1500 rpm, 1 min) • c. Seal the plate to protect from the light and incubate the plate for 1 hour at RT (25-30° C.) 3) Stop and read • a. Add 5 μL of the Stop reagent to all wells • b. Shake the plate for 30 Sec and centrifuge (1500 rpm, 1 min) • c. Measure the value of Coumarin (Ex400 nm, Em445 nm) and fluorescein (Ex400 nm, Em520 nm), respectively. 4. Data analysis
Emission Ratio (ER) Coumarin Emission (445 nm)/Fluorescein Emission (520 nm)
inhibition ratio (IR)=1−% Photest Cpd/% PhoC2%
IC50 Value: determined with add-in software for Microsoft Excel, XLfit™ (version 2.0) from ID Business Solutions (Guildford: UK)

[1] = biological target: T2, Recombinant human KDR (VEGFR-2) (Homo sapiens, UniProt P35968); experiment: Transcreener kinase assay of VEGFR-2 (KDR); format: biochemical; conditions: Poly E4Y substrate
T2 construct: purchased Invitrogen PV3660
Experimental: Transcreener kinase assay of VEGFR-2 (KDR)
1. Solution preparation • 1) Transcreenen™ KINASE Assy kit: Bellbrook Labs, 3003-10 K; • 2) Recombinant human KDR: Invitrogen, PV3660; • 3) Poly E4Y (substrate): Sigma, P0275; 5 mg/mL, dissolved in MilliQ water; • 4) Assay buffer: 67 mM HEPES, 0.013% Triton X-100, 27 mM MgCl2, 0.67 mM MnCl2 1.25 mM DTT, PH 7.4; • 5) 10 mM ATP: Invitrogen, PV3227; • 6) 500 mM EDTA: Invitrogen, 15575-038; • 7) 96 well black Greiner plate: Greiner, 675076.
2. Prepare solution • 1) Dilute the compound to 5 folds of final concentrations, keeping the DMSO concentration at 5%. The final concentrations are 1, 0.33, 0.11, 0.037, 0.012, 0.004, 0.0014, 0.0005 μM; and the final concentration of DMSO is 1%. • 2) Prepare Enzyme/Substrate stock, Recombinant human KDR and Poly E4Y are both diluted in assay buffer. The final concentration is KDR (0.3 ng/μL), Poly E4Y (62.5 ng/μL). The mixture is keeping on ice surface before use; • 3) Prepare ATP Diluents, 10 mM ATP is diluted in assay buffer, the final concentration is 25 μM; • 4) Prepare ADP Diluents: diluted ADP (500 μM) in assay buffer, the final concentration is 25 μM; • 5) Prepare ATP standard curve stock as following:
3. Enzymatic reaction • 1) Add 5 μL of compound or control. (positive control, 5 μL of 5% DMSO; negative control, 5 μL of 500 mM EDTA); • 2) Add 10 μL of Enzyme/Substrate stock; • 3) Add 10 μL of ATP Diluents to begin the enzyme reaction and mix on plate shaker; • 4) Add 5 μL 5% DMSO, 10 μL of assay buffer and 10 μL of ATP standard curve stock into standard curve wells; • 5) Incubate at 28° C. for 45 min, keeping plate in gently shaking.
4. Stop reaction and detect ADP • 1) Prepare Detection Mix: diluted ADP Alexa633 tracer (1:100), ADP antibody (1:158), and stop & detect buffer (1:10) by MilliQ water; • 2) Prepare Tracer Only control: diluted ADP Alexa633 tracer (1:100) and stop & detect buffer (1:10) by MilliQ water; • 3) Prepare No Tracer control: diluted stop & detect buffer (1:10) by MilliQ water; • 4) Add 25 μL of detection mix, Tracer Only control and No Tracer control into corresponding wells, respectively; • 5) Incubate at 28° C. for 1 h, keeping plate in gently shaking; • 6) Measure florescence polarization (FP) on TECAN F500. Excitation wavelength: 610 nm, Emission wavelength: 670 nm.
Wherein: • 1) Compound well [ADP] represents the ADP concentration of compound well. • 2) Positive control well [ADP] represents the ADP concentration of 5% DMSO well • 3) Conversion of mP value to ADP concentration based on the formula which determined by standard curve.
IC50: calculated using XL-Fit 2.0 software.

RBL-2H3 cells = experiment: IgE-induced Beta-hexosaminidase secretion in RBL-2H3 cells; format: cell-based; conditions: Rattus norvegicus; RBL-2H3 cells sensitized with SPE-7, stimulated with DNP-BSA
Experimental: For the determination of IgE-induced Beta-hexosaminidase secretion, RBL-2H3 cells (SIBS) are seeded in 96 well plates at 4×10^4 cells per well and incubated in MEM media with 15% FBS and Glutamine ([…]) for 4 hours and sensitized with 0.5 ug/ml of SPE-7 overnight. Cells are washed 3 times with Tyrode's buffer and incubated in the presence or absence of various concentrations of the testing compound for 20 min at 37° C., 5% CO2. Cells are stimulated by adding 10 μL of DNP-BSA solution (150 ng/mL) to each well and incubating for 45 minutes at 37° C., 5% CO2. Then, 45 μL of the supernatant is taken and incubated with 100 μL of 1 mM 4-Nitrophenyl N-acetyl-β-D-glucosaminide (Sigma, Cat. No. N9376), which is diluted in 0.05 M citrate buffer (pH 4.5), for 1.5 hr at 37° C. The reactions are quenched by adding 185 μL of 0.05 M sodium carbonate buffer (pH 10.0). Plates are read at 405 nm on Multiskan (MK 3).

T2 sequence (P35968 789-1356 limits assumed): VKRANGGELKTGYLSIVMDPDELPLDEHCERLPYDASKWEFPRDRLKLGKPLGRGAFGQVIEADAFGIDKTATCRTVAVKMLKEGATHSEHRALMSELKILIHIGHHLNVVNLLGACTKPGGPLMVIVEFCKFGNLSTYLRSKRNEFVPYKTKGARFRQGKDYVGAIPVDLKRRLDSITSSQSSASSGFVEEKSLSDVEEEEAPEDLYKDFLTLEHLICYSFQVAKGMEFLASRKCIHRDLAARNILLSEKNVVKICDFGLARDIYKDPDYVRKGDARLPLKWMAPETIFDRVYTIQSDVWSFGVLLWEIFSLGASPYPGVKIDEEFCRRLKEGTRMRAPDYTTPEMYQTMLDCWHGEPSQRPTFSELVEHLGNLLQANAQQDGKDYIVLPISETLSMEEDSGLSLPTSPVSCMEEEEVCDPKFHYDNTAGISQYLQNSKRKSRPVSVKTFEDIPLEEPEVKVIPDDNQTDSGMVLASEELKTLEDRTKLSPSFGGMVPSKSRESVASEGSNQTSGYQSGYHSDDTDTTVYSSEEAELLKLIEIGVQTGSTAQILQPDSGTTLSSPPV

| Compound | IC50 (Flt3 kinase) | IC50 [1] | IC50 (RBL-2H3 cells) |
| --- | --- | --- | --- |
| CS(=O)(=O)N1CCC(c2ccc(-c3cc4nccnc4c(OC[C@@H]4CN(S(C)(=O)=O)CCO4)n3)cc2)CC1 [Compound 57, (S)-4-(methylsulfonyl)-2-((7-(4-(1-(methylsulfonyl)piperidin-4-yl)phenyl)pyrido[4,3,-b]pyrazin-5-yloxy)methyl)morpholine] | 1640 nM | 1560 nM | 1 to 100 nM |
| CN(C)c1ccc(-c2cc3nccnc3c(OC[C@@H]3CN(S(C)(=O)=O)CCO3)n2)cc1F [Compound 53] | – | 2960 nM | 1 to 100 nM |
| COc1ccc(-c2cc3nccnc3c(OC[C@@H]3CN(S(C)(=O)=O)CCO3)n2)cc1OC [Compound 43] | 1600 nM | > 3000 nM | 1 to 100 nM |
| CS(=O)(=O)N1CCN(c2ccc(-c3cc4nccnc4c(OC[C@@H]4CN(S(C)(=O)=O)CCO4)n3)cc2)CC1 [Compound 26] | – | 1600 nM | 100 to 1000 nM |
| CC(=O)N1CCC(c2ccc(-c3cc4nccnc4c(OC[C@@H]4CN(S(C)(=O)=O)CCO4)n3)cc2)CC1 [Compound 33] | – | 1330 nM | 1 to 100 nM |
| CN(C)c1ccc(-c2cc3nccnc3c(OC[C@@H]3CN(S(C)(=O)=O)CCO3)n2)cc1Cl [Compound 108] | 2420 nM | > 3000 nM | 1 to 100 nM |
